Data on 18 compounds can be found in patent publication US11142525B2 (Pfizer Inc., priority 2018, dated 2021).

Experiment [1] deals with human full-length recombinant HPK1 (Homo sapiens (Human), UniProt Q92918). Kind of experiment: HPK1 biochemical enzyme assay, microfluidic mobility shift assay (MSA). The following applies: HPK1 mobility shift assay; read-out: HPK1 Enzyme Assay_Ki.
Experiment [2] deals with phospho-SLP-76 (Ser376) in Jurkat cells. The experiment can be described thus: Phospho-SLP-76 (Ser376) Homogeneous Time Resolved Fluorescence (HTRF) assay in Jurkat cells. The format is cell-based. The conditions noted are these: Homo sapiens, Phospho-SLP-76 (Ser376) HTRF, anti-CD3 stimulation, read-out: SLP76 Assay_IC50. The method in brief:
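Jurkat cells pre-treated 30 min with compounds (10 μM to 0.1 nM, 11-point, 0.1% DMSO), then stimulated with 200 μg/mL F(ab)2-complexed anti-CD3 (UCHT1) for 15 min at 37 °C. Lysate phospho-SLP-76 detected by HTRF after overnight antibody incubation; IC50 from four-parameter fit.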
(In TR-FRET formats the signal depends on donor and acceptor labels being close together.)

The structures appear in SMILES notation.

Chain of human full-length recombinant HPK1 (Q92918 whole entry): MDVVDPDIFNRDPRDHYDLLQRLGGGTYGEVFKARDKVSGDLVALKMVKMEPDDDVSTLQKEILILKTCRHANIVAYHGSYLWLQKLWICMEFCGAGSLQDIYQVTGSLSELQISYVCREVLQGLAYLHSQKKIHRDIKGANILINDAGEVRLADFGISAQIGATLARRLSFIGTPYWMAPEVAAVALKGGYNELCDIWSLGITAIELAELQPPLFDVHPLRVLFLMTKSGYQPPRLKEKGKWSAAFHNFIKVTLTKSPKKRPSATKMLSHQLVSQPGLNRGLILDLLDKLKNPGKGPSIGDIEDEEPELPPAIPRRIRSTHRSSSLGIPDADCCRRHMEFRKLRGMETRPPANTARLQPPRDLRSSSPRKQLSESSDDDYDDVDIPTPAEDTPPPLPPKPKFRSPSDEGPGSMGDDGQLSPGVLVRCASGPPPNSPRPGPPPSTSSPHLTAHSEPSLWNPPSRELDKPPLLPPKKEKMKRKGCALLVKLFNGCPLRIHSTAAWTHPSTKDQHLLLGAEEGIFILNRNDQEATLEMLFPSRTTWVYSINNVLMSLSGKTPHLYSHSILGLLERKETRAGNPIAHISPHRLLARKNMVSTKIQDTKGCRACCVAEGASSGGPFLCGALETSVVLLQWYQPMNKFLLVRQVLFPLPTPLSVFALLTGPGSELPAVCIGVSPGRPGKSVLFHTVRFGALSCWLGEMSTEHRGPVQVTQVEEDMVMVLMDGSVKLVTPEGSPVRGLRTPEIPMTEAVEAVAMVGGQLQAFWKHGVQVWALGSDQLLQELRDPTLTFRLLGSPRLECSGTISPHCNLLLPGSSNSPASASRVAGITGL

As to `CCn1cnnc1-c1cccc(N2Cc3c(cc(N(C)C(C)C)nc3CN)C2=O)n1` [Example 89, 4-(aminomethyl)-2-[6-(4-ethyl-4H-1,2,4-triazol-3-yl)pyridin-2-yl]-6-[methyl(propan-2-yl)amino]-2,3-dihydro-1H-pyrrolo[3,4-c]pyridin-1-one], in experiment [1], the Ki is under 0.08 nM. In experiment [2], the IC50 was 54 nM.
On the same counts, the results for `CCCn1cnnc1-c1cccc(N2Cc3c(cc(C4(C)CC4)nc3CN)C2=O)n1` [Example 90, 4-(aminomethyl)-6-(1-methylcyclopropyl)-2-[6-(4-propyl-4H-1,2,4-triazol-3-yl)pyridin-2-yl]-2,3-dihydro-1H-pyrrolo[3,4-c]pyridin-1-one] are 1.46 nM and 694 nM.
For `CNCc1nc(C2(C)CC2)cc2c1CN(c1cccc(N3C(=O)OC[C@@H]3CF)n1)C2=O` [Example 91, 2-{6-[(4R)-4-(fluoromethyl)-2-oxo-1,3-oxazolidin-3-yl]pyridin-2-yl}-4-[(methylamino)methyl]-6-(1-methylcyclopropyl)-2,3-dihydro-1H-pyrrolo[3,4-c]pyridin-1-one] the same measures were 0.33 nM and 257 nM.
In the case of `CCn1cnnc1-c1cccc(N2Cc3c(cc(N4CCC4)nc3CNC)C2=O)n1` [Example 92, 6-(azetidin-1-yl)-2-[6-(4-ethyl-4H-1,2,4-triazol-3-yl)pyridin-2-yl]-4-[(methylamino)methyl]-2,3-dihydro-1H-pyrrolo[3,4-c]pyridin-1-one], in experiment [1], the Ki is 0.43 nM. Further, the IC50 in experiment [2] came out at 226 nM.
As for `CCCn1cnnc1-c1cccc(N2Cc3c(cc(N4CCC4)nc3CNC)C2=O)n1` [Example 93, 6-(azetidin-1-yl)-4-[(methylamino)methyl]-2-[6-(4-propyl-4H-1,2,4-triazol-3-yl)pyridin-2-yl]-2,3-dihydro-1H-pyrrolo[3,4-c]pyridin-1-one], the Ki in experiment [1] is 0.42 nM. Further, the IC50 in experiment [2] worked out at 713 nM.
On the same counts, the results for `CCCn1cnnc1-c1cccc(N2Cc3c(cc(C4(C)CC4)nc3CNC)C2=O)n1` [Example 94, 4-[(methylamino)methyl]-6-(1-methylcyclopropyl)-2-[6-(4-propyl-4H-1,2,4-triazol-3-yl)pyridin-2-yl]-2,3-dihydro-1H-pyrrolo[3,4-c]pyridin-1-one] are 0.34 nM and 280 nM.
For `CCn1cnnc1-c1cccc(N2Cc3c(cc(C4(C)CC4)nc3CNC)C2=O)n1` [Example 95, 2-[6-(4-ethyl-4H-1,2,4-triazol-3-yl)pyridin-2-yl]-4-[(methylamino)methyl]-6-(1-methylcyclopropyl)-2,3-dihydro-1H-pyrrolo[3,4-c]pyridin-1-one] the same measures were 0.51 nM and 168 nM.
`CCN(CC)c1cc2c(c(CNC)n1)CN(c1cccc(-c3cnc(C)n3CC)n1)C2=O` [Example 96, 6-(diethylamino)-2-[6-(1-ethyl-2-methyl-1H-imidazol-5-yl)pyridin-2-yl]-4-[(methylamino)methyl]-2,3-dihydro-1H-pyrrolo[3,4-c]pyridin-1-one]: in experiment [1], the Ki amounted to 0.4 nM. The IC50 in experiment [2] is 142 nM.
For `CCN(CC)c1cc2c(c(CNC)n1)CN(c1cccc(-c3nnc(C)n3CC)n1)C2=O` [Example 97, 6-(diethylamino)-2-[6-(4-ethyl-5-methyl-4H-1,2,4-triazol-3-yl)pyridin-2-yl]-4-[(methylamino)methyl]-2,3-dihydro-1H-pyrrolo[3,4-c]pyridin-1-one] the same measures were 0.34 nM and 186 nM.
As to `CCN(c1cc2c(c(CNC)n1)CN(c1cccc(N3C(=O)OC[C@@H]3CF)n1)C2=O)C(C)C` [Example 98, 6-[ethyl(propan-2-yl)amino]-2-{6-[(4R)-4-(fluoromethyl)-2-oxo-1,3-oxazolidin-3-yl]pyridin-2-yl}-4-[(methylamino)methyl]-2,3-dihydro-1H-pyrrolo[3,4-c]pyridin-1-one], the Ki in experiment [1] was 0.96 nM. Further, the IC50 in experiment [2] was 514 nM.
As for `CC(C)N(C)c1cc2c(c(CN)n1)CN(c1cccc(N3C(=O)OC[C@@H]3C)n1)C2=O` [Example 100, 4-(aminomethyl)-2-{6-[(4S)-4-methyl-2-oxo-1,3-oxazolidin-3-yl]pyridin-2-yl}-6-[methyl(propan-2-yl)amino]-2,3-dihydro-1H-pyrrolo[3,4-c]pyridin-1-one], the Ki in experiment [1] is under 0.05 nM. In addition, the IC50 in experiment [2] was 34 nM.
On the same counts, the results for `CCn1cnnc1-c1cccc(N2Cc3c(cc(C4CCC4)nc3CNC)C2=O)n1` [Example 101, 6-cyclobutyl-2-[6-(4-ethyl-4H-1,2,4-triazol-3-yl)pyridin-2-yl]-4-[(methylamino)methyl]-2,3-dihydro-1H-pyrrolo[3,4-c]pyridin-1-one] are 0.94 nM and 217 nM.
On to `[2H]C([2H])([2H])C([2H])([2H])N(c1cc2c(c(CNC)n1)CN(c1cccc(-c3nncn3CC)n1)C2=O)C([2H])([2H])C([2H])([2H])[2H]` [Example 102, 6-{bis[(pentadeuterio)ethyl]amino}-2-[6-(4-ethyl-4H-1,2,4-triazol-3-yl)pyridin-2-yl]-4-[(methylamino)methyl]-2,3-dihydro-1H-pyrrolo[3,4-c]pyridin-1-one], for which the Ki in experiment [1] is 0.29 nM. The IC50 in experiment [2] worked out at 74 nM.
For `CCCn1cnnc1-c1cccc(N2Cc3c(cc(C4CCC4)nc3CNC)C2=O)n1` [Example 103, 6-cyclobutyl-4-[(methylamino)methyl]-2-[6-(4-propyl-4H-1,2,4-triazol-3-yl)pyridin-2-yl]-2,3-dihydro-1H-pyrrolo[3,4-c]pyridin-1-one] the same measures were 1.15 nM and 199 nM.
On the same counts, the results for `CNCc1nc(N2CCC[C@H]2C)cc2c1CN(c1cccc(-c3nncn3C(C)C)n1)C2=O` [Example 104, 4-[(methylamino)methyl]-6-[(2R)-2-methylpyrrolidin-1-yl]-2-{6-[4-(propan-2-yl)-4H-1,2,4-triazol-3-yl]pyridin-2-yl}-2,3-dihydro-1H-pyrrolo[3,4-c]pyridin-1-one] are 0.13 nM and 51 nM.
On the same counts, the results for `CCCn1cnnc1-c1cccc(N2Cc3c(cc(N4[C@H](C)CC[C@H]4C)nc3CNC)C2=O)n1` [Example 105, 6-[(2R,5R)-2,5-dimethylpyrrolidin-1-yl]-4-[(methylamino)methyl]-2-[6-(4-propyl-4H-1,2,4-triazol-3-yl)pyridin-2-yl]-2,3-dihydro-1H-pyrrolo[3,4-c]pyridin-1-one] are 0.21 nM and 64 nM.
In the case of `CCn1cnnc1-c1cccc(N2Cc3c(cc(N4[C@H](C)CC[C@H]4C)nc3CNC)C2=O)n1` [Example 106, 6-[(2R,5R)-2,5-dimethylpyrrolidin-1-yl]-2-[6-(4-ethyl-4H-1,2,4-triazol-3-yl)pyridin-2-yl]-4-[(methylamino)methyl]-2,3-dihydro-1H-pyrrolo[3,4-c]pyridin-1-one], in experiment [1], the Ki came to 0.26 nM. Besides, the IC50 in experiment [2] is 83 nM.
Regarding `CC(C)n1cnnc1-c1cccc(N2Cc3c(cc(N4CCC[C@H]4C)nc3CN)C2=O)n1` [Example 107, 4-(aminomethyl)-6-[(2R)-2-methylpyrrolidin-1-yl]-2-{6-[4-(propan-2-yl)-4H-1,2,4-triazol-3-yl]pyridin-2-yl}-2,3-dihydro-1H-pyrrolo[3,4-c]pyridin-1-one], the Ki in experiment [1] was found to be 0.04 nM. In addition, the IC50 in experiment [2] is 22 nM.
